From patent US3974268A, “Bone-seeking technetium-99m imidodiphosphonate complex” (priority 1975, dated 1976)

Assays:
[1] = Organ distribution of 99mTc-IDP in rabbits with 85Sr administered simultaneously (Table 1); format: in vivo, New Zealand adult albino rabbits; conditions: for % Dose/1% Body Weight, AVG BONE: mean of femur, tibia, spine, pelvis
Description: The organ distribution of the ^99m Tc imidodiphosphonate (IDP) was studied after I.V. injection of 50-200 μCi containing 0.1-0.2 mg of IDP per animal in New Zealand adult albino rabbits weighing 3.5-5 kg and compared with 10-20 μCi of ^85 Sr administered simultaneously as a biological standard. The methods of tissue assay used were those described in the Subramanian et al. references, supra. These animals were sacrificed at various time intervals from 15 min. to 24 hrs. after injection. […] A whole body image of the dog was obtained in the right lateral projection 4 hours after intravenous injection of 5 mCi of ^99m Tc-IDP using the Ohio Nuclear Model 100 area scan camera fitted with a 140 kev high sensitivity parallel hole collimator, with the data density setting of 200.
Table 1 contains biological distribution data of ^99m Tc-IDP in rabbits with ^85 Sr used simultaneously. The numbers shown in parenthesis after the time of study is the number of animals used per time interval. The values for each organ shown are the averages for each group of animals. The bone concentration shown as % dose / 1% body weight is the mean value of individual average of concentrations in four types of bone; the femur, tibia, spine and pelvis. An overall mean concentration of the four types of bone was calculated for each animal and then the average of these mean values were determined. Similarly the mean values for bone/organ ratios were calculated for each group.
In order to compensate for biologic variation, bone agents are best studied by comparing the quantitative uptake of the new compound with simultaneously administered ^85 Sr as a means of normalization. In comparing several ^99m Tc labeled agents between each other one should not only compare the whole organ uptake of individual compounds but also the ratios of their concentrations with ^85 Sr, especially so in comparing bone uptakes. Due to regional variation in bone uptake with the skeleton it is difficult to correctly estimate whole body bone uptake quantitatively. Nevertheless, the data for single whole bones (femur and tibia) is useful. […] This concentration change over serial time intervals may be due to the metabolic breakdown of the compound at the bone mineral surface with the ^99m Tc complex being more labile, while we known the biological half life of ^85 Sr is prolonged. Even at the later time intervals than 2 hours, ^99m Tc-IDP concentration in bone is at least 20-25% higher than the other Tc complexes (Table 2). The soft tissue concentrations of all these complexes are lower, especially that of the muscle, than ^85 Sr. The liver concentration is somewhat higher than ^85 Sr for some ^99m Tc complexes. This should not be a problem because the total liver concentration is relatively low.

[2] = in words, stated as known; cited from earlier work
[3] = 15 min after I.V. injection, mean of 6 rabbits
[4] = 1 hour after I.V. injection, mean of 6 rabbits
[5] = 2 hours after I.V. injection, mean of 9 rabbits
[6] = 4 hours after I.V. injection, mean of 9 rabbits
[7] = 24 hours after I.V. injection, mean of 7 rabbits

## [85Sr] [85Sr]
[1]; [3]
  % Dose in Whole Organ, BLOOD: 16.1 % Dose
  % Dose in Whole Organ, KIDNEY: 1.27 % Dose
  % Dose in Whole Organ, LIVER: 2.13 % Dose
  % Dose in Whole Organ, MARROW: 0.903 % Dose
  % Dose in Whole Organ, MUSCLE: 15.6 % Dose
  % Dose in Whole Organ, URINE: 4.94 % Dose
  % Dose in Whole Organ, WHOLE FEMUR: 0.741 % Dose
  % Dose in Whole Organ, WHOLE TIBIA: 0.540 % Dose
  % Dose/1% Body Weight, BLOOD: 2.29 % Dose/1% Body Weight
  % Dose/1% Body Weight, FEMUR: 3.41 % Dose/1% Body Weight
  % Dose/1% Body Weight, KIDNEY: 2.68 % Dose/1% Body Weight
  % Dose/1% Body Weight, LG INT: 1.79 % Dose/1% Body Weight
  % Dose/1% Body Weight, LIVER: 0.692 % Dose/1% Body Weight
  % Dose/1% Body Weight, MARROW: 0.410 % Dose/1% Body Weight
  % Dose/1% Body Weight, MUSCLE: 0.363 % Dose/1% Body Weight
  % Dose/1% Body Weight, PELVIS: 5.06 % Dose/1% Body Weight
  % Dose/1% Body Weight, SM INT: 1.23 % Dose/1% Body Weight
  % Dose/1% Body Weight, SPINE: 3.76 % Dose/1% Body Weight
  % Dose/1% Body Weight, TIBIA: 3.02 % Dose/1% Body Weight
  RATIOS BONE/BLOOD: 1.71
  RATIOS BONE/MARROW: 9.84
  RATIOS BONE/MUSCLE: 10.6
[1]; 15 min after I.V. injection, 6 rabbits
  % Dose/1% Body Weight, AVG BONE: 3.82 % Dose/1% Body Weight
[1]; [4]
  % Dose in Whole Organ, BLOOD: 8.17 % Dose
  % Dose in Whole Organ, KIDNEY: 0.938 % Dose
  % Dose in Whole Organ, LIVER: 1.58 % Dose
  % Dose in Whole Organ, MARROW: 0.817 % Dose
  % Dose in Whole Organ, MUSCLE: 9.55 % Dose
  % Dose in Whole Organ, URINE: 8.96 % Dose
  % Dose in Whole Organ, WHOLE FEMUR: 1.27 % Dose
  % Dose in Whole Organ, WHOLE TIBIA: 1.03 % Dose
  % Dose/1% Body Weight, BLOOD: 1.17 % Dose/1% Body Weight
  % Dose/1% Body Weight, FEMUR: 5.23 % Dose/1% Body Weight
  % Dose/1% Body Weight, KIDNEY: 1.54 % Dose/1% Body Weight
  % Dose/1% Body Weight, LG INT: 0.961 % Dose/1% Body Weight
  % Dose/1% Body Weight, LIVER: 0.489 % Dose/1% Body Weight
  % Dose/1% Body Weight, MARROW: 0.382 % Dose/1% Body Weight
  % Dose/1% Body Weight, MUSCLE: 0.222 % Dose/1% Body Weight
  % Dose/1% Body Weight, PELVIS: 5.47 % Dose/1% Body Weight
  % Dose/1% Body Weight, SM INT: 0.654 % Dose/1% Body Weight
  % Dose/1% Body Weight, SPINE: 5.82 % Dose/1% Body Weight
  % Dose/1% Body Weight, TIBIA: 4.67 % Dose/1% Body Weight
  RATIOS BONE/BLOOD: 4.53
  RATIOS BONE/MARROW: 13.9
  RATIOS BONE/MUSCLE: 23.9
[1]; 1 hour after I.V. injection, 6 rabbits
  % Dose/1% Body Weight, AVG BONE: 5.30 % Dose/1% Body Weight
[1]; [5]
  % Dose in Whole Organ, BLOOD: 5.19 % Dose
  % Dose in Whole Organ, KIDNEY: 0.638 % Dose
  % Dose in Whole Organ, LIVER: 0.947 % Dose
  % Dose in Whole Organ, MARROW: 0.499 % Dose
  % Dose in Whole Organ, MUSCLE: 7.96 % Dose
  % Dose in Whole Organ, URINE: 16.6 % Dose
  % Dose in Whole Organ, WHOLE FEMUR: 1.67 % Dose
  % Dose in Whole Organ, WHOLE TIBIA: 1.34 % Dose
  % Dose/1% Body Weight, BLOOD: 0.742 % Dose/1% Body Weight
  % Dose/1% Body Weight, FEMUR: 6.84 % Dose/1% Body Weight
  % Dose/1% Body Weight, KIDNEY: 1.14 % Dose/1% Body Weight
  % Dose/1% Body Weight, LG INT: 0.762 % Dose/1% Body Weight
  % Dose/1% Body Weight, LIVER: 0.357 % Dose/1% Body Weight
  % Dose/1% Body Weight, MARROW: 0.227 % Dose/1% Body Weight
  % Dose/1% Body Weight, MUSCLE: 0.186 % Dose/1% Body Weight
  % Dose/1% Body Weight, PELVIS: 7.35 % Dose/1% Body Weight
  % Dose/1% Body Weight, SM INT: 0.669 % Dose/1% Body Weight
  % Dose/1% Body Weight, SPINE: 8.05 % Dose/1% Body Weight
  % Dose/1% Body Weight, TIBIA: 6.60 % Dose/1% Body Weight
  RATIOS BONE/BLOOD: 10.5
  RATIOS BONE/MARROW: 36
  RATIOS BONE/MUSCLE: 44
[1]; 2 hours after I.V. injection, 9 rabbits
  % Dose/1% Body Weight, AVG BONE: 7.21 % Dose/1% Body Weight
[1]; [6]
  % Dose in Whole Organ, BLOOD: 2.72 % Dose
  % Dose in Whole Organ, KIDNEY: 0.267 % Dose
  % Dose in Whole Organ, LIVER: 0.576 % Dose
  % Dose in Whole Organ, MARROW: 0.300 % Dose
  % Dose in Whole Organ, MUSCLE: 4.80 % Dose
  % Dose in Whole Organ, URINE: 26.2 % Dose
  % Dose in Whole Organ, WHOLE FEMUR: 1.84 % Dose
  % Dose in Whole Organ, WHOLE TIBIA: 1.57 % Dose
  % Dose/1% Body Weight, BLOOD: 0.388 % Dose/1% Body Weight
  % Dose/1% Body Weight, FEMUR: 7.87 % Dose/1% Body Weight
  % Dose/1% Body Weight, KIDNEY: 0.488 % Dose/1% Body Weight
  % Dose/1% Body Weight, LG INT: 0.421 % Dose/1% Body Weight
  % Dose/1% Body Weight, LIVER: 0.168 % Dose/1% Body Weight
  % Dose/1% Body Weight, MARROW: 0.137 % Dose/1% Body Weight
  % Dose/1% Body Weight, MUSCLE: 0.125 % Dose/1% Body Weight
  % Dose/1% Body Weight, PELVIS: 9.83 % Dose/1% Body Weight
  % Dose/1% Body Weight, SM INT: 0.300 % Dose/1% Body Weight
  % Dose/1% Body Weight, SPINE: 9.57 % Dose/1% Body Weight
  % Dose/1% Body Weight, TIBIA: 7.64 % Dose/1% Body Weight
  RATIOS BONE/BLOOD: 23.6
  RATIOS BONE/MARROW: 66.9
  RATIOS BONE/MUSCLE: 73.3
[1]; 4 hours after I.V. injection, 9 rabbits
  % Dose/1% Body Weight, AVG BONE: 9.16 % Dose/1% Body Weight
[1]; [7]
  % Dose in Whole Organ, BLOOD: 0.250 % Dose
  % Dose in Whole Organ, KIDNEY: 0.022 % Dose
  % Dose in Whole Organ, LIVER: 0.004 % Dose
  % Dose in Whole Organ, MARROW: 0.070 % Dose
  % Dose in Whole Organ, MUSCLE: 0.628 % Dose
  % Dose in Whole Organ, WHOLE FEMUR: 1.55 % Dose
  % Dose in Whole Organ, WHOLE TIBIA: 1.38 % Dose
  % Dose/1% Body Weight, BLOOD: 0.331 % Dose/1% Body Weight
  % Dose/1% Body Weight, FEMUR: 6.39 % Dose/1% Body Weight
  % Dose/1% Body Weight, KIDNEY: 0.067 % Dose/1% Body Weight
  % Dose/1% Body Weight, LG INT: 0.088 % Dose/1% Body Weight
  % Dose/1% Body Weight, LIVER: 0.016 % Dose/1% Body Weight
  % Dose/1% Body Weight, MARROW: 0.032 % Dose/1% Body Weight
  % Dose/1% Body Weight, MUSCLE: 0.015 % Dose/1% Body Weight
  % Dose/1% Body Weight, PELVIS: 8.13 % Dose/1% Body Weight
  % Dose/1% Body Weight, SM INT: 0.042 % Dose/1% Body Weight
  % Dose/1% Body Weight, SPINE: 6.96 % Dose/1% Body Weight
  % Dose/1% Body Weight, TIBIA: 6.58 % Dose/1% Body Weight
  RATIOS BONE/BLOOD: 20.9
  RATIOS BONE/MARROW: 217
  RATIOS BONE/MUSCLE: 462
[1]; 24 hours after I.V. injection, 7 rabbits
  % Dose/1% Body Weight, AVG BONE: 6.93 % Dose/1% Body Weight
[2]
  biological half life: prolonged
